From the supplement of paper PMC11061612

Key:
Assay in all cases: combination Emax (second highest fraction inhibited in the dose matrix, 72 h); higher = more inhibition; extreme values may be limits of the assay
[1] = tested on: SW837 (Colorectal Carcinoma)
Method in brief: (§1)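 Bliss excess equals the observed combination effect minus the expected value EA + EB − EA·EB, where EA and EB are the effects of each agent alone. Combination Emax is the second-highest inhibition within the matrix. Inhibition was scaled from CellTiter-Glo 2.0 luminescence, with 0 set by vehicle wells and 1 by blank wells, after 72 hours of two-drug dosing of cells plated in 1536-well plates.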

[2] = tested on: SR (Other Blood Carcinomas)
Method in brief: as §1

[3] = tested on: SU-DHL-8 (B-Cell Non-Hodgkin's Lymphoma)
Method in brief: as §1

[4] = tested on: DiFi (Colorectal Carcinoma)
Method in brief: as §1

[5] = tested on: MFM-223 (Breast Carcinoma)
Method in brief: as §1

[6] = tested on: GR-ST (B-Lymphoblastic Leukemia)
Method in brief: as §1

[7] = tested on: KARPAS-45 (T-Lymphoblastic Leukemia)
Method in brief: as §1

LN-18 (Glioblastoma) = tested on: LN-18 (Glioblastoma)
Method in brief: as §1

[8] = tested on: TOV-112D (Ovarian Carcinoma)
Method in brief: as §1

[9] = tested on: NCI-H847 (Small Cell Lung Carcinoma)
Method in brief: as §1

ES8 (Ewing's Sarcoma) = tested on: ES8 (Ewing's Sarcoma)
Method in brief: as §1

[10] = tested on: MOLT-16 (T-Lymphoblastic Leukemia)
Method in brief: as §1

[11] = tested on: TE-6 (Esophageal Squamous Cell Carcinoma)
Method in brief: as §1

[12] = tested on: HL-60 (Acute Myeloid Leukemia)
Method in brief: as §1

[13] = tested on: SW1417 (Colorectal Carcinoma)
Method in brief: as §1

[14] = tested on: MS751 (Cervical Carcinoma)
Method in brief: as §1

TC-71 (Ewing's Sarcoma) = tested on: TC-71 (Ewing's Sarcoma)
Method in brief: as §1

MEL-JUSO (Melanoma) = tested on: MEL-JUSO (Melanoma)
Method in brief: as §1

[15] = tested on: L-540 (Hodgkin's Lymphoma)
Method in brief: as §1

ES1 (Ewing's Sarcoma) = tested on: ES1 (Ewing's Sarcoma)
Method in brief: as §1

Row | Compound | combination Emax [1] | combination Emax [2] | combination Emax [3] | combination Emax [4] | combination Emax [5] | combination Emax [6] | combination Emax [7] | combination Emax (LN-18 (Glioblastoma)) | combination Emax [8] | combination Emax [9] | combination Emax (ES8 (Ewing's Sarcoma)) | combination Emax [10] | combination Emax [11] | combination Emax [12] | combination Emax [13] | combination Emax [14] | combination Emax (TC-71 (Ewing's Sarcoma)) | combination Emax (MEL-JUSO (Melanoma)) | combination Emax [15] | combination Emax (ES1 (Ewing's Sarcoma))
1 | COc1cccc(OCCCN)c1-c1cc(Nc2cnc(C#N)cn2)n[nH]1 [Prexasertib] + O=C(c1cc(Cc2n[nH]c(=O)c3ccccc23)ccc1F)N1CCN(C(=O)C2CC2)CC1 [Olaparib] (first compound max 1 µM, 7x7, partner max 10 µM) | 0.645 | 0.996 | 0.943 | 0.924 | 0.703 | 0.808 | 0.979 | 0.807 | 0.796 | 1 | 0.906 | 1 | 0.476 | 0.961 | 0.614 | 0.465 | 0.987 | 0.686 | 0.975 | 1
2 | CC1(C)CCC(CN2CCN(c3ccc(C(=O)NS(=O)(=O)c4ccc(NCC5CCOCC5)c([N+](=O)[O-])c4)c(Oc4cnc5[nH]ccc5c4)c3)CC2)=C(c2ccc(Cl)cc2)C1 [Venetoclax] + Cc1cc2ncnn2cc1Nc1ncc2c(n1)n(C1CCOCC1)c(=O)n2C [AZD7648] (first compound max 1 µM, 7x7, partner max 10 µM) | 0.102 | 0.82 | 0.354 | 0.246 | 0.161 | 0.679 | 0.6 | 0.378 | 0.315 | 0.735 | 0.427 | 0.855 | 0.432 | 0.778 | 0.25 | 0.191 | 0.262 | 0.183 | 0.787 | 0.46
3 | CC(=O)Nc1cccc(-n2c(=O)n(C3CC3)c(=O)c3c(Nc4ccc(I)cc4F)n(C)c(=O)c(C)c32)c1 [Trametinib] + Cc1nc(-c2cn3c(n2)-c2ccc(-c4cnn(C(C)(C)C(N)=O)c4)cc2OCC3)n(C(C)C)n1 [Taselisib] (first compound max 1 µM, 7x7, partner max 10 µM) | 0.738 | 0.719 | 0 | 1 | 0.865 | 0.633 | 0.755 | 0.847 | 0.641 | 0.782 | 0.844 | 0.776 | 0.908 | 0.958 | 0.775 | 0.438 | 0.714 | 0.863 | 0.36 | 0.651
4 | Cc1cc2ncnn2cc1Nc1ncc2c(n1)n(C1CCOCC1)c(=O)n2C [AZD7648] + C=CCn1c(=O)c2cnc(Nc3ccc(N4CCN(C)CC4)cc3)nc2n1-c1cccc(C(C)(C)O)n1 [AZD1775] (first compound max 10 µM, partner max 1 µM) | 0.292 | 0.986 | 0.87 | 0.821 | 0.69 | 0.772 | 0.819 | 0.366 | 0.468 | 1 | 0.691 | 1 | 0.363 | 0.812 | 0.555 | 0.387 | 0.496 | 0.494 | 0.945 | 0.639
5 | COc1cccc(OCCCN)c1-c1cc(Nc2cnc(C#N)cn2)n[nH]1 [Prexasertib] + Cc1cc2ncnn2cc1Nc1ncc2c(n1)n(C1CCOCC1)c(=O)n2C [AZD7648] (first compound max 1 µM, 7x7, partner max 10 µM) | 0.749 | 1 | 0.968 | 0.864 | 0.763 | 0.806 | 0.981 | 0.75 | 0.711 | 1 | 0.842 | 1 | 0.554 | 0.961 | 0.667 | 0.453 | 0.945 | 0.712 | 0.962 | 1
6 | Cc1c2c(nn1C)CSCc1cc(n(C)n1)CSc1cc(c3ccccc3c1)OCCCc1c(C(=O)O)n(C)c3c-2c(Cl)ccc13 [AZD5991] + C1CN(CCC1(C(=O)N[C@@H](CCO)C2=CC=C(C=C2)Cl)N)C3=NC=NC4=C3C=CN4 [Capivasertib] (first compound max 1 µM, 7x7, partner max 3 µM) | 0.121 | 0.993 | 0.673 | 0.438 | 0.788 | 0.38 | 1 | 0.409 | 0.407 | 0.78 | 0.679 | 1 | 0.811 | 1 | 0.208 | 0.855 | 0.47 | 0.346 | 1 | 0.955
7 | Cc1cc2ncnn2cc1Nc1ncc2c(n1)n(C1CCOCC1)c(=O)n2C [AZD7648] + C[C@@H]1COCCN1C2=NC(=NC(=C2)C3(CC3)[S@](=N)(=O)C)C4=C5C=CNC5=NC=C4 [AZD6738] (first compound max 10 µM, 7x7, partner max 10 µM) | 0.39 | 0.924 | 0.899 | 0.842 | 0.832 | 0.743 | 0.74 | 0.272 | 0.685 | 1 | 0.798 | 1 | 0.553 | 0.834 | 0.491 | 0.296 | 0.835 | 0.419 | 0.951 | 0.913
8 | Cc1c2c(nn1C)CSCc1cc(n(C)n1)CSc1cc(c3ccccc3c1)OCCCc1c(C(=O)O)n(C)c3c-2c(Cl)ccc13 [AZD5991] + C[C@@H](Nc1cc(F)cc(F)c1)c1cc(C(=O)N(C)C)cc2c(=O)cc(N3CCOCC3)oc12 [AZD8186] (first compound max 1 µM, 7x7, partner max 3 µM) | 0.188 | 0.954 | 0.688 | 0.35 | 0.258 | 0.257 | 0.99 | 0.573 | 0.35 | 0.792 | 0.613 | 1 | 0.677 | 1 | 0.275 | 0.851 | 0.573 | 0.527 | 1 | 0.904
9 | CC1(C)CCC(CN2CCN(c3ccc(C(=O)NS(=O)(=O)c4ccc(NCC5CCOCC5)c([N+](=O)[O-])c4)c(Oc4cnc5[nH]ccc5c4)c3)CC2)=C(c2ccc(Cl)cc2)C1 [Venetoclax] + C1CN(CCC1(C(=O)N[C@@H](CCO)C2=CC=C(C=C2)Cl)N)C3=NC=NC4=C3C=CN4 [Capivasertib] (first compound max 1 µM, 7x7, partner max 3 µM) | 0.127 | 0.835 | 0.254 | 0.34 | 0.639 | 0.696 | 0.81 | 0.365 | 0.0882 | 0.829 | 0.532 | 1 | 0.503 | 0.781 | 0.193 | 0.138 | 0.257 | 0.204 | 0.638 | 0.547
10 | CN(CCO)CC[C@H](CSc1ccccc1)Nc1ccc(S(=O)(=O)NC(=O)c2ccc(N3CCC([C@@H](O)c4ccccc4-c4ccc(Cl)cc4)CC3)cc2)cc1S(=O)(=O)C(F)(F)F [AZD4320] + C=CCn1c(=O)c2cnc(Nc3ccc(N4CCN(C)CC4)cc3)nc2n1-c1cccc(C(C)(C)O)n1 [AZD1775] (first compound max 1 µM, partner max 1 µM) | 0.461 | 1 | 1 | 0.944 | 0.383 | 0.765 | 1 | 0.537 | 0.496 | 1 | 0.962 | 1 | 0.556 | 0.956 | 0.853 | 0.262 | 0.926 | 0.73 | 0.979 | 0.827
11 | CC1(C)CCC(CN2CCN(c3ccc(C(=O)NS(=O)(=O)c4ccc(NCC5CCOCC5)c([N+](=O)[O-])c4)c(Oc4cnc5[nH]ccc5c4)c3)CC2)=C(c2ccc(Cl)cc2)C1 [Venetoclax] + C[C@@H]1COCCN1C2=NC(=NC(=C2)C3(CC3)[S@](=N)(=O)C)C4=C5C=CNC5=NC=C4 [AZD6738] (first compound max 1 µM, 7x7, partner max 10 µM) | 0.348 | 0.973 | 0.99 | 0.81 | 0.752 | 0.762 | 0.941 | 0.745 | 0.656 | 0.999 | 0.934 | 1 | 0.67 | 0.933 | 0.391 | 0.424 | 0.954 | 0.483 | 0.959 | 0.942
12 | CC1(C)CCC(CN2CCN(c3ccc(C(=O)NS(=O)(=O)c4ccc(NCC5CCOCC5)c([N+](=O)[O-])c4)c(Oc4cnc5[nH]ccc5c4)c3)CC2)=C(c2ccc(Cl)cc2)C1 [Venetoclax] + C[C@@H](Nc1cc(F)cc(F)c1)c1cc(C(=O)N(C)C)cc2c(=O)cc(N3CCOCC3)oc12 [AZD8186] (first compound max 1 µM, 7x7, partner max 3 µM) | 0.0406 | 0.81 | 0.254 | 0.178 | 0.11 | 0.633 | 0.833 | 0.378 | 0.102 | 0.844 | 0.834 | 0.629 | 0.289 | 0.942 | 0.172 | 0.169 | 0.147 | 0.0937 | 0.661 | 0.395
